According to the CheMixHub ionic liquid set:
± gives the uncertainty stated by the source.

Assay: xn = mol fraction of the nth substance listed
Conditions: 100 kPa

N[C@@H](Cc1c[nH]cn1)C(=O)O + CCCC[n+]1ccn(C)c1.F[B-](F)(F)F + O
viscosity [mPa·s]
Conditions	293.15 K	298.15 K	303.15 K	308.15 K	313.15 K	318.15 K
x1 = 0.0002714, x2 = 0.0003602	1.038 ± 0.061	0.925 ± 0.061	0.843 ± 0.061	0.759 ± 0.061	0.701 ± 0.061	0.646 ± 0.061
x1 = 0.0002725, x2 = 0.0007201	1.07 ± 0.061	0.959 ± 0.061	0.876 ± 0.061	0.797 ± 0.061	0.744 ± 0.061	0.689 ± 0.061
x1 = 0.0002736, x2 = 0.00108	1.101 ± 0.061	0.991 ± 0.061	0.912 ± 0.061	0.838 ± 0.061	0.787 ± 0.061	0.733 ± 0.061
x1 = 0.0004522, x2 = 0.0003601	1.041 ± 0.061	0.927 ± 0.061	0.845 ± 0.061	0.761 ± 0.061	0.703 ± 0.061	0.648 ± 0.061
x1 = 0.000454, x2 = 0.00072	1.073 ± 0.061	0.962 ± 0.061	0.879 ± 0.061	0.8 ± 0.061	0.747 ± 0.061	0.692 ± 0.061
x1 = 0.0004559, x2 = 0.00108	1.104 ± 0.061	0.994 ± 0.061	0.915 ± 0.061	0.841 ± 0.061	0.79 ± 0.061	0.736 ± 0.061
x1 = 0.0006329, x2 = 0.00036	1.044 ± 0.061	0.93 ± 0.061	0.848 ± 0.061	0.764 ± 0.061	0.706 ± 0.061	0.651 ± 0.061
x1 = 0.0006355, x2 = 0.0007198	1.076 ± 0.061	0.965 ± 0.061	0.882 ± 0.061	0.803 ± 0.061	0.75 ± 0.06	0.695 ± 0.061
x1 = 0.0006382, x2 = 0.001079	1.107 ± 0.061	0.997 ± 0.061	0.918 ± 0.061	0.844 ± 0.061	0.793 ± 0.061	0.739 ± 0.061
x1 = 0.0008136, x2 = 0.00036	1.047 ± 0.061	0.933 ± 0.061	0.851 ± 0.061	0.767 ± 0.061	0.709 ± 0.061	0.654 ± 0.061
x1 = 0.000817, x2 = 0.0007197	1.079 ± 0.061	0.968 ± 0.061	0.885 ± 0.061	0.806 ± 0.061	0.753 ± 0.061	0.698 ± 0.061
x1 = 0.0008203, x2 = 0.001079	1.11 ± 0.061	1 ± 0.061	0.921 ± 0.061	0.847 ± 0.061	0.796 ± 0.061	0.742 ± 0.061
x1 = 0.0009942, x2 = 0.0003599	1.05 ± 0.061	0.936 ± 0.061	0.854 ± 0.061	0.77 ± 0.061	0.712 ± 0.061	0.657 ± 0.061
x1 = 0.0009983, x2 = 0.0007196	1.082 ± 0.061	0.971 ± 0.061	0.888 ± 0.061	0.809 ± 0.061	0.755 ± 0.061	0.7 ± 0.061
x1 = 0.001002, x2 = 0.001079	1.113 ± 0.061	1.003 ± 0.061	0.924 ± 0.061	0.849 ± 0.061	0.799 ± 0.061	0.745 ± 0.061
x1 = 0.001175, x2 = 0.0003598	1.053 ± 0.061	0.939 ± 0.061	0.856 ± 0.061	0.772 ± 0.061	0.714 ± 0.061	0.659 ± 0.061
x1 = 0.00118, x2 = 0.0007194	1.085 ± 0.061	0.974 ± 0.061	0.89 ± 0.061	0.811 ± 0.061	0.758 ± 0.061	0.703 ± 0.061
x1 = 0.001185, x2 = 0.001079	1.116 ± 0.061	1.006 ± 0.061	0.927 ± 0.061	0.852 ± 0.061	0.802 ± 0.061	0.748 ± 0.061
x1 = 0.001355, x2 = 0.0003598	1.056 ± 0.061	0.942 ± 0.061	0.859 ± 0.061	0.775 ± 0.061	0.716 ± 0.061	0.661 ± 0.061
x1 = 0.001361, x2 = 0.0007193	1.088 ± 0.061	0.976 ± 0.061	0.893 ± 0.061	0.814 ± 0.061	0.76 ± 0.06	0.705 ± 0.061
x1 = 0.001366, x2 = 0.001079	1.119 ± 0.061	1.008 ± 0.061	0.929 ± 0.061	0.855 ± 0.061	0.804 ± 0.061	0.75 ± 0.06
x1 = 0.001536, x2 = 0.0003597	1.059 ± 0.061	0.944 ± 0.061	0.862 ± 0.061	0.777 ± 0.061	0.719 ± 0.061	0.663 ± 0.061
x1 = 0.001542, x2 = 0.0007192	1.091 ± 0.061	0.979 ± 0.061	0.896 ± 0.061	0.816 ± 0.061	0.763 ± 0.061	0.707 ± 0.061
x1 = 0.001548, x2 = 0.001078	1.122 ± 0.061	1.011 ± 0.061	0.932 ± 0.061	0.857 ± 0.061	0.806 ± 0.061	0.752 ± 0.061
x1 = 0.001716, x2 = 0.0003596	1.062 ± 0.061	0.947 ± 0.061	0.864 ± 0.061	0.779 ± 0.061	0.721 ± 0.061	0.666 ± 0.061
x1 = 0.001723, x2 = 0.000719	1.094 ± 0.061	0.982 ± 0.061	0.898 ± 0.061	0.818 ± 0.061	0.765 ± 0.061	0.71 ± 0.061
x1 = 0.00173, x2 = 0.001078	1.125 ± 0.061	1.014 ± 0.061	0.934 ± 0.061	0.86 ± 0.061	0.808 ± 0.061	0.753 ± 0.061

CCCCn1cc[n+](C)c1.O=S(=O)([N-]S(=O)(=O)C(F)(F)F)c1ccc[cH-]1.[Fe+2].c1cc[cH-]c1 + CCCC[n+]1ccn(C)c1.O=S(=O)([N-]S(=O)(=O)C(F)(F)F)C(F)(F)F
Conditions	viscosity [mPa·s]
298.15 K, x2 = 0.749	184.5

CCO + CCCC[n+]1ccn(C)c1.O=S(=O)([N-]S(=O)(=O)C(F)(F)F)C(F)(F)F
x2 = 0
Conditions	viscosity [mPa·s]
297.55 K	1.11 ± 0.06
297.85 K	1.1 ± 0.06
298.15 K	1.1 ± 0.06
301.48 K	1.04 ± 0.05
303.3 K	1.01 ± 0.05
309.67 K	0.91 ± 0.05
312.7 K	0.86 ± 0.05
313 K	0.86 ± 0.04
313.3 K	0.85 ± 0.05
313.61 K	0.85 ± 0.04
316.33 K	0.8 ± 0.04
319.36 K	0.76 ± 0.04
319.67 K	0.76 ± 0.04
